Laboratory results reported in ChEMBL document CHEMBL3046778, “Design, synthesis and pharmacological screening of hybrid molecules as antihypertensives” (Med Chem Res, 2011).

Legend:
Rattus norvegicus [1] = experiment: Toxicity in Rattus norvegicus Wistar (rat) assessed as Rmax at 40 mg/kg, ip measured after 60 min by ECG analysis (reference value: 0.07 +/- 0.004 mv); format: organism-based; design: dose 40 mg/kg, route intraperitoneal; conditions: in vivo, 1 h
Rattus norvegicus [2] = experiment: Toxicity in Rattus norvegicus Wistar (rat) assessed as Rmax at 40 mg/kg, ip measured after 45 min by ECG analysis (reference value: 0.08 +/- 0.008 mv); format: organism-based; design: dose 40 mg/kg, route intraperitoneal; conditions: in vivo, 0.75 h
Rattus norvegicus [3] = experiment: Toxicity in Rattus norvegicus Wistar (rat) assessed as Rmax at 40 mg/kg, ip measured after 30 min by ECG analysis (reference value: 0.08 +/- 0.008 mv); format: organism-based; design: dose 40 mg/kg, route intraperitoneal; conditions: in vivo, 0.5 h
Rattus norvegicus [4] = experiment: Toxicity in Rattus norvegicus Wistar (rat) assessed as heart rate at 40 mg/kg, ip measured after 60 min by ECG analysis (reference value: 307.62 +/- 0.053 bpm); format: organism-based; design: dose 40 mg/kg, route intraperitoneal; conditions: in vivo, 1 h
Rattus norvegicus [5] = experiment: Toxicity in Rattus norvegicus Wistar (rat) assessed as heart rate at 40 mg/kg, ip measured after 45 min by ECG analysis (reference value: 307.62 +/- 0.023 bpm); format: organism-based; design: dose 40 mg/kg, route intraperitoneal; conditions: in vivo, 0.75 h
Rattus norvegicus [6] = experiment: Toxicity in Rattus norvegicus Wistar (rat) assessed as heart rate at 40 mg/kg, ip measured after 30 min by ECG analysis (reference value: 307.62 +/- 0.439 bpm); format: organism-based; design: dose 40 mg/kg, route intraperitoneal; conditions: in vivo, 0.5 h
Heart [7] = experiment: Inhibition of force of contraction in Hoplobatrachus tigerinus (frog) heart at log dose 3; format: functional
Heart [8] = experiment: Inhibition of force of contraction in Hoplobatrachus tigerinus (frog) heart at log dose 2.9; format: functional
Heart [9] = experiment: Inhibition of force of contraction in Hoplobatrachus tigerinus (frog) heart at log dose 2.6; format: functional
Heart [10] = experiment: Inhibition of force of contraction in Hoplobatrachus tigerinus (frog) heart at log dose 2.3; format: functional
Heart [11] = experiment: Inhibition of force of contraction in Hoplobatrachus tigerinus (frog) heart at log dose 2; format: functional
Rattus norvegicus [12] = experiment: Toxicity in Rattus norvegicus Wistar (rat) assessed as Rmax at 10 mg/kg, ip measured after 45 min by ECG analysis (reference value: 0.08 +/- 0.008 mv); format: organism-based; design: dose 10 mg/kg, route intraperitoneal; conditions: in vivo, 0.75 h
Rattus norvegicus [13] = experiment: Toxicity in Rattus norvegicus Wistar (rat) assessed as Rmax at 10 mg/kg, ip measured after 60 min by ECG analysis (reference value: 0.07 +/- 0.004 mv); format: organism-based; design: dose 10 mg/kg, route intraperitoneal; conditions: in vivo, 1 h
Rattus norvegicus [14] = experiment: Toxicity in Rattus norvegicus Wistar (rat) assessed as Rmax at 10 mg/kg, ip measured after 30 min by ECG analysis (reference value: 0.08 +/- 0.008 mv); format: organism-based; design: dose 10 mg/kg, route intraperitoneal; conditions: in vivo, 0.5 h
Rattus norvegicus [15] = experiment: Toxicity in Rattus norvegicus Wistar (rat) assessed as heart rate at 10 mg/kg, ip measured after 60 min by ECG analysis (reference value: 307.62 +/- 0.053 bpm); format: organism-based; design: dose 10 mg/kg, route intraperitoneal; conditions: in vivo, 1 h
Rattus norvegicus [16] = experiment: Toxicity in Rattus norvegicus Wistar (rat) assessed as heart rate at 10 mg/kg, ip measured after 45 min by ECG analysis (reference value: 307.62 +/- 0.023 bpm); format: organism-based; design: dose 10 mg/kg, route intraperitoneal; conditions: in vivo, 0.75 h
Rattus norvegicus [17] = experiment: Toxicity in Rattus norvegicus Wistar (rat) assessed as heart rate at 10 mg/kg, ip measured after 30 min by ECG analysis (reference value: 307.62 +/- 0.035 bpm); format: organism-based; design: dose 10 mg/kg, route intraperitoneal; conditions: in vivo, 0.5 h
Rattus norvegicus [18] = experiment: Toxicity in Rattus norvegicus Wistar (rat) assessed as Rmax at 50 mg/kg, ip measured after 60 min by ECG analysis (reference value: 0.07 +/- 0.004 mv); format: organism-based; design: dose 50 mg/kg, route intraperitoneal; conditions: in vivo, 1 h
Rattus norvegicus [19] = experiment: Toxicity in Rattus norvegicus Wistar (rat) assessed as Rmax at 50 mg/kg, ip measured after 45 min by ECG analysis (reference value: 0.08 +/- 0.008 mv); format: organism-based; design: dose 50 mg/kg, route intraperitoneal; conditions: in vivo, 0.75 h
Rattus norvegicus [20] = experiment: Toxicity in Rattus norvegicus Wistar (rat) assessed as Rmax at 50 mg/kg, ip measured after 30 min by ECG analysis (reference value: 0.08 +/- 0.008 mv); format: organism-based; design: dose 50 mg/kg, route intraperitoneal; conditions: in vivo, 0.5 h
Rattus norvegicus [21] = experiment: Toxicity in Rattus norvegicus Wistar (rat) assessed as heart rate at 50 mg/kg, ip measured after 60 min by ECG analysis (reference value: 307.62 +/- 0.053 bpm); format: organism-based; design: dose 50 mg/kg, route intraperitoneal; conditions: in vivo, 1 h
Rattus norvegicus [22] = experiment: Toxicity in Rattus norvegicus Wistar (rat) assessed as heart rate at 50 mg/kg, ip measured after 45 min by ECG analysis (reference value: 307.62 +/- 0.023 bpm); format: organism-based; design: dose 50 mg/kg, route intraperitoneal; conditions: in vivo, 0.75 h
Rattus norvegicus [23] = experiment: Toxicity in Rattus norvegicus Wistar (rat) assessed as heart rate at 50 mg/kg, ip measured after 30 min by ECG analysis (reference value: 307.62 +/- 0.439 bpm); format: organism-based; design: dose 50 mg/kg, route intraperitoneal; conditions: in vivo, 0.5 h
Rattus norvegicus [24] = experiment: Toxicity in Rattus norvegicus Wistar (rat) assessed as Rmax at 30 mg/kg, ip measured after 60 min by ECG analysis (reference value: 0.07 +/- 0.004 mv); format: organism-based; design: dose 30 mg/kg, route intraperitoneal; conditions: in vivo, 1 h
Rattus norvegicus [25] = experiment: Toxicity in Rattus norvegicus Wistar (rat) assessed as Rmax at 30 mg/kg, ip measured after 45 min by ECG analysis (reference value: 0.08 +/- 0.008 mv); format: organism-based; design: dose 30 mg/kg, route intraperitoneal; conditions: in vivo, 0.75 h
Rattus norvegicus [26] = experiment: Toxicity in Rattus norvegicus Wistar (rat) assessed as Rmax at 30 mg/kg, ip measured after 30 min by ECG analysis (reference value: 0.08 +/- 0.008 mv); format: organism-based; design: dose 30 mg/kg, route intraperitoneal; conditions: in vivo, 0.5 h
Rattus norvegicus [27] = experiment: Toxicity in Rattus norvegicus Wistar (rat) assessed as heart rate at 30 mg/kg, ip measured after 60 min by ECG analysis (reference value: 307.62 +/- 0.053 bpm); format: organism-based; design: dose 30 mg/kg, route intraperitoneal; conditions: in vivo, 1 h
Rattus norvegicus [28] = experiment: Toxicity in Rattus norvegicus Wistar (rat) assessed as heart rate at 30 mg/kg, ip measured after 45 min by ECG analysis (reference value: 307.62 +/- 0.023 bpm); format: organism-based; design: dose 30 mg/kg, route intraperitoneal; conditions: in vivo, 0.75 h
Rattus norvegicus [29] = experiment: Toxicity in Rattus norvegicus Wistar (rat) assessed as heart rate at 30 mg/kg, ip measured after 30 min by ECG analysis (reference value: 307.62 +/- 0.439 bpm); format: organism-based; design: dose 30 mg/kg, route intraperitoneal; conditions: in vivo, 0.5 h

| Compound | Activity (Rattus norvegicus [1]) [mV] | Activity (Rattus norvegicus [2]) [mV] | Activity (Rattus norvegicus [3]) [mV] | Activity (Rattus norvegicus [4]) [bpm] | Activity (Rattus norvegicus [5]) [bpm] | Activity (Rattus norvegicus [6]) [bpm] | inhibition (INH) (Heart [7]) [%] | inhibition (INH) (Heart [8]) [%] | inhibition (INH) (Heart [9]) [%] | inhibition (INH) (Heart [10]) [%] | inhibition (INH) (Heart [11]) [%] | also measured |
| --- | --- | --- | --- | --- | --- | --- | --- | --- | --- | --- | --- | --- |
| CCOC(=O)C1=C(C)N(CC(O)COc2ccc(/C=N/C(=S)Nc3ccccc3OC)cc2)C(=S)NC1c1ccccc1[N+](=O)[O-] (stereo not given) | 0.13 | 0.05 | 0.1 | 266.08 | 266.08 | 266.08 | 31 | 20 | 20 | 38 | 25 | – |
| CCOC(=O)C1=C(C)N(CC(O)COc2ccc(/C=N/C(=S)Nc3ccc(OC)cc3)cc2)C(=S)NC1c1ccccc1[N+](=O)[O-] (stereo not given) | 0.13 | 0.02 | 0.09 | 266.41 | 266.41 | 272.19 | – | 66 | 50 | 50 | 30 | – |
| CCOC(=O)C1=C(C)N(CC(O)COc2ccc(/C=N/C(=S)Nc3ccc(Cl)cc3)cc2)C(=S)NC1c1cccc([N+](=O)[O-])c1 (stereo not given) | 0.07 | 0.01 | 0.03 | 260.42 | 299.78 | 323.85 | – | 25 | 4 | 20 | 13 | – |
| CCOC(=O)C1=C(C)N(CC(O)COc2ccc(/C=N/C(=S)Nc3ccc(Cl)cc3)cc2)C(=S)NC1c1ccccc1[N+](=O)[O-] (stereo not given) | 0.09 | 0.02 | 0.08 | 315.25 | 324.05 | 324.05 | 50 | 18 | 18 | 16 | 23 | – |
| CC(C)NCC(O)COc1cccc2ccccc12 (stereo not given) [PROPRANOLOL] | – | – | – | – | – | – | – | – | – | – | – | Activity (Rattus norvegicus [12]): 0.02 mV; Activity (Rattus norvegicus [13]): 0.13 mV; Activity (Rattus norvegicus [14]): 0.04 mV; Activity (Rattus norvegicus [15]): 333 bpm; Activity (Rattus norvegicus [16]): 333 bpm; Activity (Rattus norvegicus [17]): 400 bpm |
| CCOC(=O)C1=C(C)N(CC(O)COc2ccc(/C=N/C(=S)Nc3ccc(C(=O)O)cc3)cc2)C(=S)NC1c1cccc([N+](=O)[O-])c1 (stereo not given) | – | – | – | – | – | – | – | 30 | 25 | 5 | 23 | Activity (Rattus norvegicus [18]): 0.12 mV; Activity (Rattus norvegicus [19]): 0.05 mV; Activity (Rattus norvegicus [20]): 0.03 mV; Activity (Rattus norvegicus [21]): 399.26 bpm; Activity (Rattus norvegicus [22]): 399.26 bpm; Activity (Rattus norvegicus [23]): 399.26 bpm |
| COC(=O)C1=C(C)NC(C)=C(C(=O)OC)C1c1ccccc1[N+](=O)[O-] [NIFEDIPINE] | – | – | – | – | – | – | – | – | – | – | – | Activity (Rattus norvegicus [24]): 0.15 mV; Activity (Rattus norvegicus [25]): 0.1 mV; Activity (Rattus norvegicus [26]): 0.04 mV; Activity (Rattus norvegicus [27]): 521.73 bpm; Activity (Rattus norvegicus [28]): 425.61 bpm; Activity (Rattus norvegicus [29]): 363.63 bpm |
| CCOC(=O)C1=C(C)N(CC(O)COc2ccc(/C=N/C(=S)Nc3ccc(OC)cc3)cc2)C(=S)NC1c1cccc([N+](=O)[O-])c1 (stereo not given) | 0.14 | 0.07 | 0.04 | 300.22 | 300.22 | 315.87 | – | 50 | 43 | 43 | 50 | – |
| CCOC(=O)C1=C(C)N(CC(O)COc2ccc(/C=N/C(=S)Nc3ccccc3OC)cc2)C(=S)NC1c1cccc([N+](=O)[O-])c1 (stereo not given) | 0.19 | 0.03 | 0.08 | 215.7 | 214.17 | 226.62 | 36 | 22 | 23 | 10 | 32 | – |
